According to ChEMBL document CHEMBL1137226, “Structure modifications of 6-aminoquinolones with potent anti-HIV activity” (J Med Chem, 2004):
In brackets after ≈: the same amount, converted by molar mass.

What was measured:
MT4 [1] = assay: Selectivity index towards HIV-2 (ROD) in MT-4 cells; format: functional, Homo sapiens
MT4 [2] = assay: Concentration of compound that reduces the viability of mock-infected MT-4 cells by 50%; format: functional; conditions: Homo sapiens
MT4 [3] = assay: Maximum protection (%) of MT-4 cells from HIV-1 (IIIB) induced cytopathogenicity; value ranges from 25-30%; format: functional, Homo sapiens
MT4 [4] = assay: Concentration required for protection of MT-4 cells from HIV-2 (ROD) induced cytopathogenicity in MTT assay; format: functional, cell-based; conditions: Homo sapiens
MT4 [5] = assay: Maximum protection (%) of MT-4 cells from HIV-2 (ROD) induced cytopathogenicity; value ranges from 51-81%; format: functional, Homo sapiens
MT4 [6] = assay: Selectivity index towards HIV-1 (IIIB) in MT-4 cells; format: functional, Homo sapiens
MT4 [7] = assay: Concentration required for protection of MT-4 cells from HIV-1 (IIIB) induced cytopathogenicity in MTT assay; format: functional, cell-based; conditions: Homo sapiens
CCRF-CEM [8] = assay: Concentration of compound that reduces the viability of mock-infected CEM cells by 50%; format: functional; conditions: Homo sapiens
CCRF-CEM [9] = assay: Selectivity index towards HIV-2 (ROD) in CEM cells; format: functional, Homo sapiens
CCRF-CEM [10] = assay: Selectivity index towards HIV-1 (IIIB) in CEM cells; format: functional, Homo sapiens
MT4 [11] = assay: Maximum protection (%) of MT-4 cells from HIV-2 (ROD) induced cytopathogenicity; value ranges from 51-55%; format: functional, Homo sapiens
[12] = Concentration of compound required for reduction of p24 production in HIV-1 (IIIB) infected peripheral blood mononuclear cells; format: functional; conditions: Homo sapiens
[13] = Concentration of compound that reduces the viability of mock-infected peripheral blood mononuclear cells by 50%; format: functional; conditions: Homo sapiens
MT4 [14] = assay: Maximum protection (%) of MT-4 cells from HIV-1 (IIIB) induced cytopathogenicity; value ranges from 60-91%; format: functional, Homo sapiens
CCRF-CEM [15] = assay: Concentration of compound required for protection of CEM cells from HIV-2 (ROD) induced cytopathogenicity; format: functional, cell-based; conditions: Homo sapiens
[16] = Selectivity index towards HIV-1 (IIIB) in peripheral blood mononuclear cells; format: functional, Homo sapiens
CCRF-CEM [17] = assay: Concentration of compound required for protection of CEM cells from HIV-1 (IIIB) induced cytopathogenicity; format: functional, cell-based; conditions: Homo sapiens
MT4 [18] = assay: Maximum protection (%) of MT-4 cells from HIV-1 (IIIB) induced cytopathogenicity; value ranges from 7-30%; format: functional, Homo sapiens
MT4 [19] = assay: Maximum protection (%) of MT-4 cells from HIV-2 (ROD) induced cytopathogenicity; value ranges from 17-31%; format: functional, Homo sapiens
MT4 [20] = assay: Maximum protection (%) of MT-4 cells from HIV-2 (ROD) induced cytopathogenicity; value ranges from 15-21%; format: functional, Homo sapiens
MT4 [21] = assay: Maximum protection (%) of MT-4 cells from HIV-1 (IIIB) induced cytopathogenicity; value ranges from 65-86%; format: functional, Homo sapiens
MT4 [22] = assay: Maximum protection (%) of MT-4 cells from HIV-1 (IIIB) induced cytopathogenicity; value ranges from 5-9%; format: functional, Homo sapiens
MT4 [23] = assay: Maximum protection (%) of MT-4 cells from HIV-2 (ROD) induced cytopathogenicity; format: functional, Homo sapiens
MT4 [24] = assay: Maximum protection (%) of MT-4 cells from HIV-1 (IIIB) induced cytopathogenicity; value ranges from 16-21%; format: functional, Homo sapiens
MT4 [25] = assay: Maximum protection (%) of MT-4 cells from HIV-2 (ROD) induced cytopathogenicity; value ranges from 17-27%; format: functional, Homo sapiens
MT4 [26] = assay: Maximum protection (%) of MT-4 cells from HIV-1 (IIIB) induced cytopathogenicity; value ranges from 2-18%; format: functional, Homo sapiens
MT4 [27] = assay: Maximum protection (%) of MT-4 cells from HIV-1 (IIIB) induced cytopathogenicity; value ranges from 9-24%; format: functional, Homo sapiens
MT4 [28] = assay: Maximum protection (%) of MT-4 cells from HIV-2 (ROD) induced cytopathogenicity; value ranges from 26-27%; format: functional, Homo sapiens
MT4 [29] = assay: Maximum protection (%) of MT-4 cells from HIV-1 (IIIB) induced cytopathogenicity; value ranges from 11-24%; format: functional, Homo sapiens
MT4 [30] = assay: Maximum protection (%) of MT-4 cells from HIV-2 (ROD) induced cytopathogenicity; value ranges from 58-83%; format: functional, Homo sapiens
MT4 [31] = assay: Maximum protection (%) of MT-4 cells from HIV-1 (IIIB) induced cytopathogenicity; value ranges from 55-118%; format: functional, Homo sapiens

## Cn1cc(C(=O)O)c(=O)c2cc(N)c(N3CCN(c4nc5ccccc5s4)CC3)cc21
MT4 [1]
  Selectivity index: 5.1
MT4 [2]
  CC50: 0.0054 µg/mL (≈ 0.0124 µM)
MT4 [3]
  Protection: <30%
MT4 [4]
  EC50: 0.0011 µg/mL (≈ 0.00253 µM)
MT4 [5]
  Protection: <81%
MT4 [6]
  Selectivity index: <1
MT4 [7]
  EC50: > 0.0054 µg/mL

## Cn1cc(C(=O)O)c(=O)c2cc(N)c(N3CCN(c4cnccn4)CC3)cc21
MT4 [1]
  Selectivity index: 2.6
CCRF-CEM [8]
  CC50: > 100 µg/mL
CCRF-CEM [9]
  Selectivity index: >500
CCRF-CEM [10]
  Selectivity index: >1250
MT4 [11]
  Protection: <55%
[12]
  EC50: 0.04 µg/mL (≈ 0.105 µM)
[13]
  CC50: 3.65 µg/mL (≈ 9.59 µM)
MT4 [14]
  Protection: <91%
MT4 [2]
  CC50: 3.98 µg/mL (≈ 10.5 µM)
CCRF-CEM [15]
  EC50: 0.2 µg/mL (≈ 0.526 µM)
MT4 [4]
  EC50: 1.54 µg/mL (≈ 4.05 µM)
[16]
  Selectivity index: 81
CCRF-CEM [17]
  EC50: 0.08 µg/mL (≈ 0.21 µM)
MT4 [6]
  Selectivity index: 5.7
MT4 [7]
  EC50: 0.7 µg/mL (≈ 1.84 µM)

## Cn1cc(C(=O)O)c(=O)c2cc(N)c(N3CCN(c4ccccc4F)CC3)cc21
MT4 [18]
  Protection: <30%
MT4 [19]
  Protection: <31%
MT4 [2]
  CC50: > 125 µg/mL
MT4 [4]
  EC50: > 125 µg/mL
MT4 [7]
  EC50: > 125 µg/mL

## Cn1cc(C(=O)O)c(=O)c2cc(N)c(N3CCN(c4nc5ccccc5o4)CC3)cc21
MT4 [1]
  Selectivity index: 11.3
CCRF-CEM [8]
  CC50: 2.2 µg/mL (≈ 5.25 µM)
CCRF-CEM [9]
  Selectivity index: 110
CCRF-CEM [10]
  Selectivity index: 220
[12]
  EC50: 0.04 µg/mL (≈ 0.0954 µM)
[13]
  CC50: 1.12 µg/mL (≈ 2.67 µM)
MT4 [20]
  Protection: <21%
MT4 [2]
  CC50: 0.09 µg/mL (≈ 0.215 µM)
MT4 [21]
  Protection: <86%
CCRF-CEM [15]
  EC50: 0.02 µg/mL (≈ 0.0477 µM)
MT4 [4]
  EC50: 0.0087 µg/mL (≈ 0.0207 µM)
[16]
  Selectivity index: 26
CCRF-CEM [17]
  EC50: 0.01 µg/mL (≈ 0.0238 µM)
MT4 [6]
  Selectivity index: 6.5
MT4 [7]
  EC50: 0.01 µg/mL (≈ 0.0238 µM)

## CC(=O)c1ccc(N2CCN(c3cc4c(cc3N)c(=O)c(C(=O)O)cn4C)CC2)cc1
MT4 [22]
  Protection: <9%
MT4 [1]
  Selectivity index: <1
MT4 [23]
  Protection: 13%
MT4 [2]
  CC50: 0.15 µg/mL (≈ 0.357 µM)
MT4 [4]
  EC50: > 0.15 µg/mL
MT4 [6]
  Selectivity index: <1
MT4 [7]
  EC50: > 0.15 µg/mL

## COc1ccccc1N1CCN(c2cc3c(cc2N)c(=O)c(C(=O)O)cn3C)CC1
MT4 [1]
  Selectivity index: <1
MT4 [2]
  CC50: 7.45 µg/mL (≈ 18.2 µM)
MT4 [4]
  EC50: > 7.45 µg/mL
MT4 [24]
  Protection: <21%
MT4 [25]
  Protection: <27%
MT4 [6]
  Selectivity index: <1
MT4 [7]
  EC50: > 7.45 µg/mL

## Nc1cc2c(=O)c(C(=O)O)cn(N3CCN(c4ccccn4)CC3)c2cc1N1CCN(c2nc3ccccc3s2)CC1
MT4 [1]
  Selectivity index: <1
MT4 [23]
  Protection: 0%
MT4 [26]
  Protection: <18%
MT4 [2]
  CC50: 0.24 µg/mL (≈ 0.412 µM)
MT4 [4]
  EC50: > 0.24 µg/mL
MT4 [6]
  Selectivity index: <1
MT4 [7]
  EC50: > 0.24 µg/mL

## COc1ccccc1N1CCN(c2cc3c(cc2N)c(=O)c(C(=O)O)cn3C2CC2)CC1
MT4 [1]
  Selectivity index: <1
MT4 [27]
  Protection: <24%
MT4 [23]
  Protection: 10%
MT4 [2]
  CC50: 10.3 µg/mL (≈ 23.8 µM)
MT4 [4]
  EC50: > 10.3 µg/mL
MT4 [6]
  Selectivity index: <1
MT4 [7]
  EC50: > 10.3 µg/mL

## CCn1cc(C(=O)O)c(=O)c2cc(N)c(N3CCN(c4ccccn4)CC3)cc21
MT4 [1]
  Selectivity index: <1
MT4 [28]
  Protection: <27%
MT4 [29]
  Protection: <24%
MT4 [2]
  CC50: 2.2 µg/mL (≈ 5.59 µM)
MT4 [4]
  EC50: > 2.2 µg/mL
MT4 [6]
  Selectivity index: <1
MT4 [7]
  EC50: > 2.2 µg/mL

## Cn1cc(C(=O)O)c(=O)c2cc(N)c(N3CCN(c4nccs4)CC3)cc21
MT4 [30]
  Protection: <83%
MT4 [1]
  Selectivity index: 14.6
CCRF-CEM [8]
  CC50: ≥ 100 µg/mL
CCRF-CEM [9]
  Selectivity index: >=1250
CCRF-CEM [10]
  Selectivity index: >=1667
[12]
  EC50: 0.03 µg/mL (≈ 0.0778 µM)
[13]
  CC50: 1.3 µg/mL (≈ 3.37 µM)
MT4 [31]
  Protection: <118%
MT4 [2]
  CC50: 1.17 µg/mL (≈ 3.04 µM)
CCRF-CEM [15]
  EC50: 0.08 µg/mL (≈ 0.208 µM)
MT4 [4]
  EC50: 0.08 µg/mL (≈ 0.208 µM)
[16]
  Selectivity index: 41
CCRF-CEM [17]
  EC50: 0.06 µg/mL (≈ 0.156 µM)
MT4 [6]
  Selectivity index: 9
MT4 [7]
  EC50: 0.13 µg/mL (≈ 0.337 µM)
